In ChEMBL document CHEMBL4825709 (J Med Chem, 2021):
In brackets after ≈: the same amount, converted by molar mass.

Legend:
[1] = physchem; conditions: buffer, pH 7.4, logD
[2] = physchem
[3] = physchem; conditions: FaSSIF, pH 6.5
[4] = Solubility of compound in pH 7.4 by charged aerosol detection method; type: physicochemical; conditions: buffer
[5] = AUC (0 to infinity) in Wistar Han rat at 1 mg/kg, iv measured up to 24 hrs by LC-MS/MS analysis; type: ADME, organism-based; design: route intravenous, dose 1 mg/kg, time <=24; conditions: in vivo
[6] = Half life in Wistar Han rat at 1 mg/kg, iv measured up to 24 hrs by LC-MS/MS analysis; type: ADME, organism-based; conditions: in vivo
[7] = Clearance in Wistar Han rat at 1 mg/kg, iv measured up to 24 hrs by LC-MS/MS analysis; type: ADME, organism-based; conditions: in vivo
[8] = Intrinsic clearance in rat hepatocytes at 0.5 uM measured after 60 mins by LC-MS/MS analysis; type: ADME, cell-based, Hepatocyte; conditions: 1 h
[9] = Intrinsic clearance in human hepatocytes at 0.5 uM measured after 120 mins by LC-MS/MS analysis; type: ADME, cell-based, Hepatocyte; conditions: 2 h
[10] = Intrinsic clearance in dog hepatocytes at 0.5 uM measured after 120 mins by LC-MS/MS analysis; type: ADME, cell-based, Canis lupus familiaris, Hepatocyte; conditions: 2 h
[11] = Volume of distribution at steady state in Wistar Han rat at 1 mg/kg, iv measured up to 24 hrs by LC-MS/MS analysis; type: ADME, organism-based; conditions: in vivo, read-out: Vdss
[12] = Cmax in Wistar Han rat at 3 mg/kg, po measured up to 24 hrs by LC-MS/MS analysis; type: ADME, organism-based; design: route oral, dose 3 mg/kg, time <=24; conditions: in vivo
[13] = Tmax in Wistar Han rat at 3 mg/kg, po measured up to 24 hrs by LC-MS/MS analysis; type: ADME, organism-based; conditions: in vivo
[14] = AUC (0 to infinity) in Wistar Han rat at 3 mg/kg, po measured up to 24 hrs by LC-MS/MS analysis; type: ADME, organism-based; design: route oral, dose 3 mg/kg, time <=24; conditions: in vivo
[15] = Oral bioavailability in Wistar Han rat at 3 mg/kg measured up to 24 hrs by LC-MS/MS analysis; type: ADME, organism-based; conditions: in vivo
[16] = buffer, pH 7.4

Compound	logD [1]	solubility [2]	other results
CNC(=O)C(C(C)C)N(CC(c1ccccc1)c1ccccc1)C(=O)c1cc(C)c(=O)n(C)c1 (configuration not stated)	4.9	105 µg/mL (≈ 228 µM)	solubility at 16 h [3]: 60 µg/mL (≈ 131 µM)
CNC(=O)CN(CC(CC1CCOCC1)c1ccccc1)C(=O)c1cc(C)c(=O)n(C)c1 (configuration not stated)	2.4		
CNC(=O)C(C)N(CC(c1ccccc1)c1cccnc1)C(=O)c1cc(C)c(=O)n(C)c1 (configuration not stated)	1.9		
Cc1cc(C(=O)N(CC(c2ccccc2)c2ccccc2)C(C)C2CCCO2)cn(C)c1=O (configuration not stated)	5.1	108 µg/mL (≈ 243 µM)	solubility at 16 h [3]: 21 µg/mL (≈ 47.2 µM)
CCOC(CN(CC(=O)NC)C(=O)c1cc(C)c(=O)n(C)c1)c1ccccc1 (configuration not stated)	2.7		
CNC(=O)C(C)N(CC(O)(c1ccccc1)c1ccccc1)C(=O)c1cc(C)c(=O)n(C)c1 (configuration not stated)	2.9		
CNC(=O)C(C)N(CC(c1ccccc1)c1ccccc1)C(=O)c1cc(OC)c(=O)n(C)c1 (configuration not stated)	3.3	111 µg/mL (≈ 248 µM)	solubility at 16 h [3]: 661 µg/mL (≈ 1480 µM)
Cc1cc(C(=O)N(CC(N)=O)CC(c2ccccc2)c2ccccc2)cn(C)c1=O	2.9	> 175 µg/mL	
Cc1cc(C(=O)N(CCN2CCOCC2)CC(c2ccccc2)c2ccccc2)cn(C)c1=O	4.1	> 239 µg/mL	
CNC(=O)C(N(CC(c1ccccc1)c1ccccc1)C(=O)c1cc(C)c(=O)n(C)c1)C(C)(C)C (configuration not stated)	5.4	93 µg/mL (≈ 196 µM)	solubility at 16 h [3]: 2 µg/mL (≈ 4.22 µM)
CNC(=O)CN(CC(c1ccccc1)C1CCOCC1)C(=O)c1cc(C)c(=O)n(C)c1 (configuration not stated)	2.1		
CNC(=O)C(C)N(CC(c1ccccc1)c1ccccc1)C(=O)c1cc(C)c(=O)n(C)c1 (configuration not stated)	3.7	213 µg/mL (≈ 494 µM)	
CCNC(=O)C(C)N(CC(c1ccccc1)c1ccccc1)C(=O)C1CCC(=O)N(C)C1 (configuration not stated)	3.9		
CNC(=O)C(C1CCC1)N(CC(c1ccccc1)c1ccccc1)C(=O)c1cc(C)c(=O)n(C)c1 (configuration not stated)	4.9	161 µg/mL (≈ 341 µM)	
CNC(=O)C(C1CC1)N(CC(c1ccccc1)c1ccccc1)C(=O)c1cc(C)c(=O)n(C)c1 (configuration not stated)	4.4	91 µg/mL (≈ 199 µM)	solubility at 16 h [3]: 30 µg/mL (≈ 65.6 µM)
CCNC(=O)C(C)N(CC(c1ccccc1)c1ccccc1)C(=O)c1c[nH]c(=O)c(C)c1 (configuration not stated)	3.6	> 170 µg/mL	
CNC(=O)C1(N(CC(c2ccccc2)c2ccccc2)C(=O)c2cc(C)c(=O)n(C)c2)CC1	4.4	> 194 µg/mL	solubility at 16 h [3]: 819 µg/mL (≈ 1850 µM)

Compound	logD [1]	solubility [2]	other results
CCC(CN(CC(=O)NC)C(=O)c1cc(C)c(=O)n(C)c1)c1ccccc1 (configuration not stated)	2.8		
Cc1cc(C(=O)N(CC(c2ccccc2)c2ccccc2)C(C)C#N)cn(C)c1=O (configuration not stated)	4.8	> 157 µg/mL	solubility at 16 h [3]: 13 µg/mL (≈ 32.5 µM)
CNC(=O)CN(CC(C)c1ccccc1)C(=O)c1cc(C)c(=O)n(C)c1 (configuration not stated)	2.2		
CNC(=O)C1(N(CC(c2ccccc2)c2ccccc2)C(=O)c2cc(C)c(=O)n(C)c2)CCC1	4.9	> 150 µg/mL	
CCNC(=O)C(C)N(CC(c1ccccc1)c1ccccc1)C(=O)c1ccc(=O)n(C)c1 (configuration not stated)	3.7	> 169 µg/mL	
CNC(=O)[C@H](C1CCOCC1)N(CC(c1ccccc1)c1ccccn1)C(=O)c1cc(C)c(=O)n(C)c1 (stereo in doubt)			AUC(0-inf) [5]: 340 ng·h/mL; half-life [6]: 11.4 min; clearance [7]: 50 mL/min/kg; solubility ([4]; read-out: solubility): > 231 µg/mL; CLH [8]: 3.13 mL/min/g; CLH [9]: < 0.45 mL/min/g; CLH [10]: < 0.65 mL/min/g; Vd [11]: 0.6 L/kg; Cmax [12]: 398 nM; Tmax [13]: 15 min; AUC(0-inf) [14]: 162 ng·h/mL; bioavailability [15]: 16%; logD [16]: 2.9; solubility at 16 h [3]: > 1000 µg/mL
CNC(=O)C(C1CCOC1)N(CC(c1ccccc1)c1ccccc1)C(=O)c1cc(C)c(=O)n(C)c1 (stereo in doubt; 21)			solubility [4]: > 143 µg/mL; solubility at 16 h [3]: 987 µg/mL (≈ 2020 µM)
CNC(=O)C(C1CCOC1)N(CC(c1ccccc1)c1ccccc1)C(=O)c1cc(C)c(=O)n(C)c1 (stereo in doubt; 22)			solubility [4]: > 185 µg/mL
CNC(=O)C(C1CCOC1)N(CC(c1ccccc1)c1ccccc1)C(=O)c1cc(C)c(=O)n(C)c1 (stereo in doubt; 23)			solubility [4]: > 181 µg/mL
CNC(=O)C(C1CCOC1)N(CC(c1ccccc1)c1ccccc1)C(=O)c1cc(C)c(=O)n(C)c1 (stereo in doubt; 24)			solubility [4]: > 153 µg/mL
CNC(=O)C(C)N(CC(c1ccccc1)c1ccccn1)C(=O)c1cc(C)c(=O)n(C)c1 (stereo in doubt; 50)	2.3		
CNC(=O)C(C)N(CC(c1ccccc1)c1ccccn1)C(=O)c1cc(C)c(=O)n(C)c1 (stereo in doubt; 51)			logD [16]: 2.1
CNC(=O)C(C)N(CC(c1ccccc1)c1ccccn1)C(=O)c1cc(C)c(=O)n(C)c1 (stereo in doubt; 56)			logD [16]: 2.7
CNC(=O)C(C)N(CC(c1ccccc1)c1ccccn1)C(=O)c1cc(C)c(=O)n(C)c1 (stereo in doubt; 57)			logD [16]: 2.6
CNC(=O)[C@H](C1CCOCC1)N(CC(c1ccccc1)c1ccccn1)C(=O)c1cc(C)c(=O)n(C)c1 (stereo in doubt; 62)	2.8		
CNC(=O)[C@@H](C1CCOCC1)N(CC(c1ccccc1)c1ccccn1)C(=O)c1cc(C)c(=O)n(C)c1 (stereo in doubt; 63)			logD [16]: 2.9

Now from value to compound, other results behind:

logD [1]	solubility [2]	Compound	other results
1.45		CNC(=O)CN(CC(c1ccccc1)n1ccnc1)C(=O)c1cc(C)c(=O)n(C)c1 (configuration not stated)	
4.3		CCNC(=O)C(C)N(CC(c1ccccc1)c1ccccc1)C(=O)c1cc(C)c(=O)n(C)c1 (configuration not stated)	
1.7		CNC(=O)C(C)N(CC(c1ccccc1)c1ccncc1)C(=O)c1cc(C)c(=O)n(C)c1 (configuration not stated)	
3.4	163 µg/mL (≈ 390 µM)	CNC(=O)CN(CC(c1ccccc1)c1ccccc1)C(=O)c1cc(C)c(=O)n(C)c1	
3.3		CNC(=O)CN(CC(c1ccccc1)C(C)C)C(=O)c1cc(C)c(=O)n(C)c1 (configuration not stated)	
4.3		CCC(C(=O)NC)N(CC(c1ccccc1)c1ccccc1)C(=O)c1cc(C)c(=O)n(C)c1 (configuration not stated)	solubility at 16 h [3]: 150 µg/mL (≈ 337 µM)
4.7		CNC(=O)C1(N(CC(c2ccccc2)c2ccccc2)C(=O)c2cc(C)c(=O)n(C)c2)CCCC1	solubility at 16 h [3]: 132 µg/mL (≈ 280 µM)
	> 163 µg/mL	CNC(=O)[C@H](C)N(CC(c1ccccc1)c1ccccc1)C(=O)c1cc(C)c(=O)n(C)c1	
3.7	> 242 µg/mL	CNC(=O)C(C)(C)N(CC(c1ccccc1)c1ccccc1)C(=O)c1cc(C)c(=O)n(C)c1	
5.4	> 206 µg/mL	Cc1cc(C(=O)N(CC(c2ccccc2)c2ccccc2)C(C)CN2CCOCC2)cn(C)c1=O (configuration not stated)	solubility at 16 h [3]: 91 µg/mL (≈ 192 µM)
	> 211 µg/mL	CNC(=O)[C@@H](C)N(CC(c1ccccc1)c1ccccc1)C(=O)c1cc(C)c(=O)n(C)c1	
3.6	> 142 µg/mL	CNC(=O)C(C1COC1)N(CC(c1ccccc1)c1ccccc1)C(=O)c1cc(C)c(=O)n(C)c1 (configuration not stated)	
4.1		CNC(=O)C(C)N(CC(c1ccccc1)c1ccccc1)C(=O)c1cn(C)c(=O)c(C)n1 (configuration not stated)	solubility ([4]; read-out: solubility): > 102 µg/mL
5.5	> 186 µg/mL	COCC(COC)N(CC(c1ccccc1)c1ccccc1)C(=O)c1cc(C)c(=O)n(C)c1	solubility at 16 h [3]: 78 µg/mL (≈ 174 µM)
5.7	114 µg/mL (≈ 265 µM)	CNC(=O)CN(CC(c1ccccc1)c1ccccc1)C(=O)c1cc(C)c(OC)c(C)c1	
4		CNC(=O)C(C1CCOC1)N(CC(c1ccccc1)c1ccccc1)C(=O)c1cc(C)c(=O)n(C)c1 (racemic)	solubility ([4]; read-out: solubility): > 138 µg/mL
2.8		CNC(=O)[C@@H](C1CCOCC1)N(CC(c1ccccc1)c1ccccn1)C(=O)c1cc(C)c(=O)n(C)c1 (stereo in doubt; 61)	
